The record followed here is ChEMBL document CHEMBL3739362, “Brominated Variant of the Lantibiotic NAI-107 with Enhanced Antibacterial Potency” (2015).

Molecules are shown by their SMILES. ≈ marks a conversion by molar mass, not a printed value. Where only a bound is given, the exact number is not on record here.

Assay type in all cases: functional
The test system of experiment [1] is Staphylococcus aureus. Kind of experiment: Antibacterial activity against glycopeptide-intermediate Staphylococcus aureus L3797 by broth microdilution assay.
Experiment [2] has as its system Enterococcus faecalis. Description: Antibacterial activity against Enterococcus faecalis L559 by broth microdilution assay.
The test system of experiment [3] is Streptococcus pneumoniae. Kind of experiment: Antibacterial activity against Streptococcus pneumoniae L44 by broth microdilution assay.
Experiment [4] has as its system Streptococcus pneumoniae. Description: Antibacterial activity against Streptococcus pneumoniae ATCC 49619 by broth microdilution assay.
Experiment [5] relates to Streptococcus pyogenes. Kind of experiment: Antibacterial activity against Streptococcus pyogenes L49 by broth microdilution assay.
Experiment [6] deals with Enterococcus faecalis. Kind of experiment: Antibacterial activity against vancomycin-resistant Enterococcus faecalis L560 by broth microdilution assay.
Experiment [7] deals with Enterococcus faecium. Kind of experiment: Antibacterial activity against vancomycin-resistant Enterococcus faecium L569 by broth microdilution assay.
The test system of experiment [8] is Staphylococcus aureus. Description: Antibacterial activity against glycopeptide-intermediate Staphylococcus aureus L3798 by broth microdilution assay.

Turning to `CN[C@@H](CC(C)C)C(=O)N[C@H]1C(=O)N[C@@H](CC(N)=O)C(=O)N[C@H]2C(=O)N[C@H]3C(=O)N[C@H](C(=O)N[C@@H](C(=O)O)c4cc(O)cc(O)c4-c4cc3ccc4O)[C@H](O)c3ccc(c(Cl)c3)Oc3cc2cc(c3O[C@H]2O[C@@H](CO)[C@H](O)[C@@H](O)[C@@H]2O[C@@H]2C[C@@](C)(N)[C@@H](O)[C@@H](C)O2)Oc2ccc(cc2Cl)[C@H]1O`, the MIC in experiment [1] is 8 µg/mL (≈ 5.52 µM); in experiment [2], 1 µg/mL (≈ 0.69 µM); in experiment [3], 0.5 µg/mL (≈ 0.345 µM); in experiment [4], 0.25 µg/mL (≈ 0.173 µM); in experiment [5], 0.5 µg/mL (≈ 0.345 µM); in experiment [6] it was above 64 µg/mL. Also, the MIC was above 64 µg/mL in experiment [7] and 16 µg/mL (≈ 11 µM) in experiment [8].
